Test results reported in patent publication US10189796B2, “[4-(1,3,3-trimethyl-2-oxo-3,4-dihydro-1H-quinoxalin-7-yl)phenoxy]ethyloxy compound or salt thereof” (SANTEN PHARMACEUTICAL CO., LTD., priority 2015, dated 2019).

Tests used:
[1] = tested on: ovalbumin actively sensitized allergic conjunctivitis model of rabbits; assay: Allergic conjunctivitis model evaluation test; assay type: in vivo, rabbit; settings: eye drop 50 μL four times a day for 4 days plus once, 0.5 hour after challenge
Experimental: In order to evaluate an anti-allergic action of the present compounds on allergic conjunctivitis, an inhibitory effect on hyperemia in an ovalbumin actively sensitized allergic conjunctivitis model of rabbits was investigated. Incidentally, this effect was evaluated by calculating an inhibitory ratio from the score of the base agent administered group (control group) and the score of the test compound administered group.
A base agent containing a general additive(s) was added to the test compound to prepare test compound suspensions with 1% (WN) and 3% (W/V).
By using male JW rabbits, ovalbumin (200 μg/mL/physiological saline solution) adsorbed on aluminum hydroxide gel was injected 200 μL per eye into bulbar conjunctiva of both eyes of rabbits, respectively, to perform active sensitization.
After 14 days from sensitization or later, the test compound suspension was eye-dropped four times a day for 4 days, and then, at the next day, it was eye-dropped (instillation dose: 50 μL/time) once to both eyes. Incidentally, the base agent was similarly eye-dropped to the base agent administered group (control group).
One hour after the final eye dropping of the test compound suspension, a physiological saline solution containing 0.02% (W/V) of ovalbumin was administered from rabbit ear vein at a dose of 1.5 mL per 1 kg of rabbit to induce allergic conjunctivitis.
After 0.5 hour of the challenge, the degree of hyperemia symptoms of both ocular conjunctiva of rabbits was evaluated according to the following criteria, and the average value of the total of these scores was calculated. […]

[2] = tested on: MCP-1 production in human monocyte cell (THP-1); assay: MCP-1 production inhibitory action evaluation test (LPS stimulation, ELISA); assay type: cell-based; settings: THP-1, LPS, 18 hours
Experimental: In order to evaluate an action of the present compound as a GR agonist, an MCP-1 production inhibitory action in human monocyte cell after stimulation by LPS was investigated. For the measurement of the MCP-1 production amount in the sample, the ELISA method (manufactured by R&D Systems, Cat No. DCP00) was used, and a procedure was carried out according to the protocol attached thereto. Hereinafter, the specific method will be described.
LPS solution: After LPS was dissolved in PBS(−), the solution was diluted with 10% FBS-containing RPMI 1640 to prepare an LPS solution with a 40 μg/mL concentration.
After the test compound was dissolved in dimethylsulfoxide, the solution was diluted with an RPMI medium to prepare 400 μM of a test compound solution. The solution was diluted with a 4% dimethylsulfoxide-containing RPMI 1640 medium to prepare 40 μM of a test compound solution.
Used cells: human monocyte cell (THP-1) (ATCC)
• 1) Subcultured THP-1 was recovered and centrifuged at 1,100 rpm for 5 minutes to give a cell sediment. • 2) An RPMI medium (RPMI 1640 containing 10% FBS, 100 U/mL of penicillin, 100 μg/mL of streptomycin, 55 μM of 2-Mercaptoethanol, 10 ng/mL of human EGF, and 40 μg/mL of gentamicin) was added. • 3) The above suspension was seeded in a culture flask and cultured in a CO2 incubator (temperature: 37° C., CO2 concentration: 5%). The cells continued to subculture according to this method were used for the test. (Test Method and Measurement Method) • 1) The subcultured THP-1 was recovered and the cells were each seeded at 1.9×10^5 cells/0.19 mL/well in a 96-well round bottom culture plate. • 2) The test compound solution was added with each 5 μL/well and cultured for 2 hours. • 3) LPS solution was added with each 5 μL/well. • 4) The sample to which 4% dimethylsulfoxide-containing RPMI medium was added with each 5 μL/well in place of each test compound solution, and 10% FBS-RPMI 1640 was added with each 5 μL/well in place of the LPS solution was made a negative control. • 5) The sample to 4% dimethylsulfoxide-containing RPMI medium was added with each 5 μL/well in place of each test compound solution was made a positive control. • 6) After completion of 18 hours cultivation, the supernatant was recovered and the amount of MCP-1 released in the supernatant was measured by using an ELISA Kit. • 7) The MCP-1 production inhibitory ratio was calculated according to the following calculation formula. (Calculation of MCP-1 Production Inhibitory Ratio)
MCP-1 production inhibitory ratio (%) was calculated by the following formula. […]

Structure (SMILES): COc1cc(OC[C@@H](O)CC#N)ccc1-c1ccc2c(c1COc1cc(F)ccc1C)N(C)C(=O)C(C)(C)N2 [Compound 5-2, (S)-7-[4-(3-cyano-2-hydroxypropyl)oxy-2-methoxyphenyl]-8-(5-fluoro-2-methyl-phenoxymethyl)-1,3,3-trimethyl-3,4-dihydro-1H-quinoxalin-2-one]
- Eye congestion inhibitory ratio (%) ([1]; 3% suspension): 35%

Structure (SMILES): COCOc1ccc(-c2ccc3c(c2COc2cc(F)ccc2C)N(C)C(=O)C(C)(C)N3)c(OC)c1 [Control compound F, 8-(5-fluoro-2-methylphenoxymethyl)-7-(2-methoxy-4-methoxymethoxyphenyl)-1,3,3-trimethyl-3,4-dihydro-1H-quinoxalin-2-one, reference compound]
- MCP-1 production inhibitory ratio (% of 1 μM) [2]: 27%

Structure (SMILES): COc1ccc(O)cc1-c1ccc2c(c1COc1cc(F)ccc1C)N(C)C(=O)C(C)(C)N2 [Control compound C, 8-(5-fluoro-2-methylphenoxymethyl)-7-(5-hydroxy-2-methoxyphenyl)-1,3,3-trimethyl-3,4-dihydro-1H-quinoxalin-2-one]
- MCP-1 production inhibitory ratio (% of 1 μM) [2]: 65%

Structure (SMILES): COc1cc(OC[C@H](C)OC(=O)CN(C)C)ccc1-c1ccc2c(c1COc1cc(F)ccc1C)N(C)C(=O)C(C)(C)N2 [Compound 11-1, (S)-7-[4-[2-(N,N-dimethylaminoacetoxy)propyl]oxy-2-methoxyphenyl]-8-(5-fluoro-2-methylphenoxymethyl)-1,3,3-trimethyl-3,4-dihydro-1H-quinoxalin-2-one]
- MCP-1 production inhibitory ratio (% of 1 μM) [2]: 88%
- Eye congestion inhibitory ratio (%) ([1]; 1% suspension): 44%

Structure (SMILES): COc1ccc(-c2ccc3c(c2COc2cc(F)ccc2C)N(C)C(=O)C(C)(C)N3)c(OC)c1 [Control compound E, 7-(2,4-dimethoxyphenyl)-8-(5-fluoro-2-methyl-phenoxymethyl)-1,3,3-trimethyl-3,4-dihydro-1H-quinoxalin-2-one, reference compound]
- MCP-1 production inhibitory ratio (% of 1 μM) [2]: 40%
